{"source": "patent US12617767B2", "about": "“Crystalline forms of somatostatin modulators” (Crinetics Pharmaceuticals, Inc., priority 2019, dated 2026)", "format_in_all_cases": "physicochemical", "key": {"[1]": {"assay": "Slurries of amorphous material (dissolution at room temperature)", "details": "room temperature (20-23° C.)", "protocol": "About 22 mg of amorphous material was dispensed into vials and 0.5 mL (ca. 23 volumes) of the chosen solvent was added, and the mixture was stirred at room temperature (20-23° C.). A solution was formed in water and water saturated MeOAc. Additional solid was added to these solutions, but when a solution remained after roughly doubling the original solid quantity (ca. 90 mg/mL), further addition was ceased. All the other samples remained as slurries. After slurrying for 4 hours, an aliquot was taken for XRPD analysis of the slurry solids from all the samples except the water and water saturated MeOAc samples as they remained solutions. The mixtures continued to stir at room temperature overnight then the remaining slurry solids were collected (total slurry time of about 24 hours)."}, "[2]": {"assay": "Humidity stress tests (XRPD, HPLC purity)", "details": "40° C./75% RH/7 days", "protocol": "Pattern A was heated to 277° C., monitored by DSC. […] This material was exposed to ˜90% RH at room temperature and slurried in ACN and after 4 hours the Patterns B and I were recovered, respectively.\nAbout 15 mg of Compound A⋅2MSA (Pattern A) was loaded into a 4 mL vial and the opening was covered with a Kimwipe. This was placed in a 20 mL vial with saturated aqueous K2SO4 and sealed to provide an environment of 94-96% Relative Humidity (RH) at room temperature (RT).\nAbout 10 mg of Compound A⋅2MSA Pattern A and Pattern B were loaded into separate 4 mL vials. These were placed in 20 mL vials with saturated aqueous NaCl and sealed to provide an environment of 75% RH at 40° C. […] The same 1 week study was done with Pattern C (+I) and Pattern I, both remained stable by XRPD."}, "[3]": {"assay": "Karl-Fischer titration for water determination", "protocol": "Karl-Fischer titration for water determination was done using a Mettler Toledo C20S Coulometric KF Titrator equipped with a current generator cell with a diaphragm, and a doubleplatinum-pin electrode. Aquastar™ CombiCoulomat fritless reagent was used in both the anode and cathode compartments. Samples of approximately 0.03-0.10 g were dissolved in the anode compartment and titrated until the solution potential dropped below 100 mV. Hydranal 1 wt. % water standard is used for validation prior to sample analysis."}, "[4]": {"assay": "Equilibrium solubility in simulated fluids and water at 37° C.", "details": "for solubility at 24 h: above calibration range", "protocol": "The solubility Compound A⋅2MSA, Patterns A, B and I, was measured in water, fasted state simulated gastric fluid (FaSSGF) and fasted state simulated intestinal fluid (FaSSIF) at 37° C. by slurrying in the respective media for 24 hours. 1.5 mL of the fluid was stirred at 37° C. About 5 mg of the specified solid was added to FaSSIF and a thin slurry was immediately formed. As a test, approximately 80 and 60 mg of Pattern A was added to 1.5 mL of water and FaSSGF, respectively without formation of a slurry. Therefore, about 10 mg of the desired Pattern was added to water and FaSSGF solutions. The samples were allowed to stir at 37° C. for 24 hrs. The stir bars were removed from the FaSSIF vials and the solids allowed to settle for 0.5 hours at 37° C. The supernatant/solutions were syringe filtered and recovered for analysis by HPLC as well as for pH measurement."}, "[5]": {"assay": "Stability of XRPD pattern on drying", "details": "solids from short term slurries; vacuum oven at 50° C., minimum of 4 hours; dimesylate", "protocol": "Short term slurries were carried out at two temperatures in 14 solvents. About 25 mg solid was added to a 2 mL vial followed by 0.70 mL of solvent. If all solids dissolved, more solid was added until a slurry was formed within reason. Slurries were stirred at constant temperature for four days (ambient temperature, 21-23° C.; or high temperature, 50° C.). After stirring for four days, solids were allowed to settle and were then recovered for XRPD analysis. XRPD analysis was performed on the wet cake, and if a new pattern was observed, the sample was dried in a vacuum oven at 50° C. for a minimum of 4 hours, then the dried sample was analyzed by XRPD.\nStability on Drying: A sample of Pattern B was prepared on an XRPD sample holder and analysed by XRPD to create a baseline. The disk was then left in a vacuum oven at 50° C. under static vacuum for 3 days. On the third day, the sample was removed from the oven and the “dry” pattern was recorded immediately.\n(§1) Compound A⋅2MSA (Pattern A) was slurried in EtOH overnight at room temperature (ca. 16 hours). […] The bulk was dried in a vacuum oven at 50° C. under dynamic vacuum for 4.5 hours. The dried solids were removed from the oven and a “dry” XRPD analysis was collected."}, "[6]": {"assay": "Dynamic Vapor Sorption (DVS)", "protocol": "Dynamic Vapor Sorption (DVS) was done using a DVS Intrinsic 1. The sample is loaded into a sample pan and suspended from a microbalance. A typical sample mass for DVS measurement is 25 mg. Nitrogen gas bubbled through distilled water provides the desired relative humidity.\nA typical measurement comprises the steps: • 1—Equilibrate at 50% RH • 2-50% to 2%. (50%, 40%, 30%, 20%, 10% and 2%) • a. Hold minimum of 5 mins and maximum of 240 minutes at each humidity. The pass criteria is less than 0.002% change • 3-2% to 95% (2%, 10%, 20%, 30%, 40%, 50%, 60%, 70%, 80%, 90%, 95%) • a. Hold minimum of 5 mins and maximum of 240 minutes at each humidity. The pass criteria is less than 0.002% change • 4-95% to 2% (95%, 80%, 70%, 60%, 50%, 40%, 30%, 20%, 10%, 2%) • a. Hold minimum of 5 mins and maximum of 240 minutes at each humidity. The pass criteria is less than 0.002% change • 5-2% to 50% (2%, 10%, 20%, 30%, 40%, 50%) • a. Hold minimum of 5 mins and maximum of 240 minutes at each humidity. The pass criteria is less than 0.002% change Dynamic Vapor Sorption Isotherm Plots of Solid Forms of Compound A⋅2MSA"}, "[7]": {"assay": "Storage at ambient conditions (XRPD)", "details": "bulk, 6 days at ambient conditions; dimesylate", "protocol": "Characterization after storage under ambient conditions: Pattern B was left at ambient conditions (21-22° C., 10-40% RH) for a week then characterized by)(RFD, TGA/DSC, and water content measured by Karl-Fischer titration. […] The water content was confirmed by KF titration which yielded a value of 4.20 wt. %.\nCompound A⋅2MSA (Pattern A, 0.2622 g) was added to a 20 mL vial with a stir bar. Fifteen volumes (3.93 mL) of EtOH was added and the slurry was stirred overnight (˜20 hours). The slurry was sampled to confirm the correct pattern was generated, then the solids were collected by filtration. The resultant yellow solid was dried in a vacuum oven at 50° C. under dynamic vacuum for 2 hours, then under static vacuum overnight (˜16 hours) to yield 0.2015 g (77% yield). The in-situ sample drawn was dried for 3 hours then the solid was used for characterization by solution ^1H-NMR spectroscopy and simultaneous TGA/DSC. The bulk was dried overnight and used for stand-alone DSC, and thermal treatment.\nas §1\nCompound A⋅2MSA (Pattern A, 0.2659 g) was added to a 20 mL vial with a stir bar. Twenty-five volumes (6.65 mL) of ACN was added and the slurry was stirred overnight (˜20 hours). The slurry was sampled to confirm the correct pattern was generated, then the solids were collected by filtration. The resultant yellow solid was dried in a vacuum oven at 50° C. under dynamic vacuum for 2 hours, then under static vacuum overnight (˜16 hours) to yield 0.2255 g (85% yield). The sample drawn was dried for 3 hours then the solid was used for characterization by solution ^1H-NMR spectroscopy and simultaneous TGA/DSC. The bulk was dried overnight and used for stand-alone DSC."}}, "note": "Like-named read-outs stand apart in the source and are kept apart here."}
{"molecule": "CS(=O)(=O)O.CS(=O)(=O)O.N#Cc1cccc(-c2ccc3ncc(-c4cc(F)cc(F)c4)c(N4CCC(N)CC4)c3c2)c1O", "note": "[Amorphous Compound A⋅2MSA, 3-(4-(4-aminopiperidin-1-yl)-3-(3,5-difluorophenyl)quinolin-6-yl)-2-hydroxybenzonitrile dimesylate]", "values": [{"measurement": "concentration at which a solution remained", "setting": "[1]; water saturated MeOAc", "result": "> 90", "unit": "mg/mL"}, {"measurement": "concentration at which a solution remained", "setting": "[1]; water", "result": "> 90", "unit": "mg/mL"}]}
{"molecule": "CS(=O)(=O)O.CS(=O)(=O)O.N#Cc1cccc(-c2ccc3ncc(-c4cc(F)cc(F)c4)c(N4CCC(N)CC4)c3c2)c1O", "note": "[C + I, 3-(4-(4-aminopiperidin-1-yl)-3-(3,5-difluorophenyl)quinolin-6-yl)-2-hydroxybenzonitrile dimesylate]", "values": [{"measurement": "Output XRPD", "setting": "[2]", "result": "C + I"}]}
{"molecule": "N#Cc1cccc(-c2ccc3ncc(-c4cc(F)cc(F)c4)c(N4CCC(N)CC4)c3c2)c1O", "note": "[Compound A, 3-(4-(4-aminopiperidin-1-yl)-3-(3,5-difluorophenyl)quinolin-6-yl)-2-hydroxybenzonitrile]", "values": [{"measurement": "Water Content", "setting": "[3]", "result": 1.5, "unit": "% w/w"}, {"measurement": "pH (24 hr)", "setting": "[4]; FaSSGF (pH 1.70)", "result": 1.82}, {"measurement": "comments", "setting": "[4]; FaSSGF (pH 1.70), 24 hrs", "result": "dissolved"}, {"measurement": "solubility at 24 h", "setting": "[4]; FaSSGF, 37 °C, pH 1.7, fassgf or other biorelevant, thermodynamic from solid, FaSSGF (pH 1.70), 24 hrs, mg of Compound A (free base), read-out: Concentration", "result": "> 10.3", "unit": "mg/mL"}, {"measurement": "pH (24 hr)", "setting": "[4]; FaSSIF (pH 6.48)", "result": 6.11}, {"measurement": "comments", "setting": "[4]; FaSSIF (pH 6.48), 24 hrs", "result": "disproportionated"}, {"measurement": "solubility thermodynamic at 24 h", "setting": "[4]; FaSSIF, 37 °C, pH 6.48, fassif, thermodynamic from solid, FaSSIF (pH 6.48), 24 hrs, mg of Compound A (free base), read-out: Concentration", "result": 9, "unit": "µg/mL"}, {"measurement": "pH (24 hr)", "setting": "[4]; water", "result": 2.71}, {"measurement": "solubility at 24 h", "setting": "[4]; water, 37 °C, water, thermodynamic from solid, water, 24 hrs, mg of Compound A (free base), read-out: Concentration", "result": "> 9.77", "unit": "mg/mL"}, {"measurement": "comments", "setting": "[4]; water, 24 hrs", "result": "dissolved"}]}
{"molecule": "CS(=O)(=O)O.CS(=O)(=O)O.N#Cc1cccc(-c2ccc3ncc(-c4cc(F)cc(F)c4)c(N4CCC(N)CC4)c3c2)c1O", "note": "[Pattern I, 3-(4-(4-aminopiperidin-1-yl)-3-(3,5-difluorophenyl)quinolin-6-yl)-2-hydroxybenzonitrile dimesylate]", "values": [{"measurement": "XRPD pattern upon drying", "setting": "[5]", "result": "stable upon drying"}, {"measurement": "Water Content", "setting": "[3]; dimesylate", "result": 0.29, "unit": "% w/w"}, {"measurement": "XRPD form after the DVS experiment", "setting": "[6]; 2-95% RH, dimesylate", "result": "converted to Pattern B"}, {"measurement": "reversible water uptake (DVS)", "setting": "[6]; between 2% and 95% Relative Humidity (RH), dimesylate", "result": 9.1, "unit": "% w/w"}, {"measurement": "water uptake (DVS)", "setting": "[6]; between 15 and 75% RH", "result": 2.5, "unit": "% w/w"}, {"measurement": "total mass difference on the desorption segment (DVS)", "setting": "[6]; over the 2-95% RH range", "result": 4.6, "unit": "%"}, {"measurement": "total mass difference on the sorption segment (DVS)", "setting": "[6]; over the 2-95% RH range", "result": 9.1, "unit": "%"}, {"measurement": "mass change (DVS)", "setting": "[6]; range of 15-75% RH", "result": 2.5, "unit": "wt. %"}, {"measurement": "XRPD pattern after storage at ambient conditions", "setting": "[7]", "result": "a pattern with additional peaks"}]}
